Measurements taken from PMC6478789, “A chemical toolbox for the study of bromodomains and epigenetic signaling” (Nature Communications, 2019).
Like-named read-outs stand apart in the source and are kept apart here.

Legend:
[1] = target: T1, MYST1 (Homo sapiens, UniProt Q9H7Z6); assay: Histone acetyltransferase (HAT) activity assay; format: biochemical; conditions: read-out: HATs Activity (%);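 further: selectivity screen across a panel of histone acetyltransferases, with compounds tested at 1 and 10 µM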
T1 sequence (Q9H7Z6 1-458): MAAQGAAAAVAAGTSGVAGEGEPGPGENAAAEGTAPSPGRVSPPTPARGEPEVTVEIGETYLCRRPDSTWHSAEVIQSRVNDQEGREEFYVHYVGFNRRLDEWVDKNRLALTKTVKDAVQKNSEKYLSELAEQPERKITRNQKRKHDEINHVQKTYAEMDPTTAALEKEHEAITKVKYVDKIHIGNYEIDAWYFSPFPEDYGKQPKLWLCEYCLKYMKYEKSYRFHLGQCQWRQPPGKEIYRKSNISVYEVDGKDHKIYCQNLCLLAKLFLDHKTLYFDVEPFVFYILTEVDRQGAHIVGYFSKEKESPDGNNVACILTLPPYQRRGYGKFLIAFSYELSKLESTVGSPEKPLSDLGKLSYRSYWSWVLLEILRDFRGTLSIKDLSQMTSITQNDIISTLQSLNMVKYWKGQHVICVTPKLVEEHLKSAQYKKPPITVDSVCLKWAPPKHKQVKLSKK

[2] = target: T2, HAT1 (Homo sapiens, UniProt O14929); assay: Histone acetyltransferase (HAT) activity assay; format: biochemical; conditions: read-out: HATs Activity (%);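 further: HAT selectivity screen of BRD probe compounds, enzyme activity in % measured with compound at 1 µM and 10 µM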
T2 sequence (O14929 1-419): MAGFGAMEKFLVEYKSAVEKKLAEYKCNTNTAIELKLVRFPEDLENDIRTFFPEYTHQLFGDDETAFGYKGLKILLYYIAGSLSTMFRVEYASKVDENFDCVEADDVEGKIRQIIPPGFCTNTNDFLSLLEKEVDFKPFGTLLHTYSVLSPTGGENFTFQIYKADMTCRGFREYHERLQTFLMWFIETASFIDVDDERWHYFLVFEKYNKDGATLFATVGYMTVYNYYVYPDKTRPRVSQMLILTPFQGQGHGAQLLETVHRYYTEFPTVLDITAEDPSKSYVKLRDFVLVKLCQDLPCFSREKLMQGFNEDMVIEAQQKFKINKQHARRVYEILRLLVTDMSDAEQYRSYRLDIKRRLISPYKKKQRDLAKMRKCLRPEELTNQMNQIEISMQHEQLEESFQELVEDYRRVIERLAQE

[3] = target: EP300 (Homo sapiens, UniProt Q09472); assay: Histone acetyltransferase (HAT) activity assay; format: biochemical; conditions: read-out: HATs Activity (%);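 further: selectivity screen of bromodomain probe compounds against histone acetyltransferases, with enzyme activity given in percent for compounds tested at 1 and 10 µM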
Target sequence in this assay (Q09472 whole entry, species assumed): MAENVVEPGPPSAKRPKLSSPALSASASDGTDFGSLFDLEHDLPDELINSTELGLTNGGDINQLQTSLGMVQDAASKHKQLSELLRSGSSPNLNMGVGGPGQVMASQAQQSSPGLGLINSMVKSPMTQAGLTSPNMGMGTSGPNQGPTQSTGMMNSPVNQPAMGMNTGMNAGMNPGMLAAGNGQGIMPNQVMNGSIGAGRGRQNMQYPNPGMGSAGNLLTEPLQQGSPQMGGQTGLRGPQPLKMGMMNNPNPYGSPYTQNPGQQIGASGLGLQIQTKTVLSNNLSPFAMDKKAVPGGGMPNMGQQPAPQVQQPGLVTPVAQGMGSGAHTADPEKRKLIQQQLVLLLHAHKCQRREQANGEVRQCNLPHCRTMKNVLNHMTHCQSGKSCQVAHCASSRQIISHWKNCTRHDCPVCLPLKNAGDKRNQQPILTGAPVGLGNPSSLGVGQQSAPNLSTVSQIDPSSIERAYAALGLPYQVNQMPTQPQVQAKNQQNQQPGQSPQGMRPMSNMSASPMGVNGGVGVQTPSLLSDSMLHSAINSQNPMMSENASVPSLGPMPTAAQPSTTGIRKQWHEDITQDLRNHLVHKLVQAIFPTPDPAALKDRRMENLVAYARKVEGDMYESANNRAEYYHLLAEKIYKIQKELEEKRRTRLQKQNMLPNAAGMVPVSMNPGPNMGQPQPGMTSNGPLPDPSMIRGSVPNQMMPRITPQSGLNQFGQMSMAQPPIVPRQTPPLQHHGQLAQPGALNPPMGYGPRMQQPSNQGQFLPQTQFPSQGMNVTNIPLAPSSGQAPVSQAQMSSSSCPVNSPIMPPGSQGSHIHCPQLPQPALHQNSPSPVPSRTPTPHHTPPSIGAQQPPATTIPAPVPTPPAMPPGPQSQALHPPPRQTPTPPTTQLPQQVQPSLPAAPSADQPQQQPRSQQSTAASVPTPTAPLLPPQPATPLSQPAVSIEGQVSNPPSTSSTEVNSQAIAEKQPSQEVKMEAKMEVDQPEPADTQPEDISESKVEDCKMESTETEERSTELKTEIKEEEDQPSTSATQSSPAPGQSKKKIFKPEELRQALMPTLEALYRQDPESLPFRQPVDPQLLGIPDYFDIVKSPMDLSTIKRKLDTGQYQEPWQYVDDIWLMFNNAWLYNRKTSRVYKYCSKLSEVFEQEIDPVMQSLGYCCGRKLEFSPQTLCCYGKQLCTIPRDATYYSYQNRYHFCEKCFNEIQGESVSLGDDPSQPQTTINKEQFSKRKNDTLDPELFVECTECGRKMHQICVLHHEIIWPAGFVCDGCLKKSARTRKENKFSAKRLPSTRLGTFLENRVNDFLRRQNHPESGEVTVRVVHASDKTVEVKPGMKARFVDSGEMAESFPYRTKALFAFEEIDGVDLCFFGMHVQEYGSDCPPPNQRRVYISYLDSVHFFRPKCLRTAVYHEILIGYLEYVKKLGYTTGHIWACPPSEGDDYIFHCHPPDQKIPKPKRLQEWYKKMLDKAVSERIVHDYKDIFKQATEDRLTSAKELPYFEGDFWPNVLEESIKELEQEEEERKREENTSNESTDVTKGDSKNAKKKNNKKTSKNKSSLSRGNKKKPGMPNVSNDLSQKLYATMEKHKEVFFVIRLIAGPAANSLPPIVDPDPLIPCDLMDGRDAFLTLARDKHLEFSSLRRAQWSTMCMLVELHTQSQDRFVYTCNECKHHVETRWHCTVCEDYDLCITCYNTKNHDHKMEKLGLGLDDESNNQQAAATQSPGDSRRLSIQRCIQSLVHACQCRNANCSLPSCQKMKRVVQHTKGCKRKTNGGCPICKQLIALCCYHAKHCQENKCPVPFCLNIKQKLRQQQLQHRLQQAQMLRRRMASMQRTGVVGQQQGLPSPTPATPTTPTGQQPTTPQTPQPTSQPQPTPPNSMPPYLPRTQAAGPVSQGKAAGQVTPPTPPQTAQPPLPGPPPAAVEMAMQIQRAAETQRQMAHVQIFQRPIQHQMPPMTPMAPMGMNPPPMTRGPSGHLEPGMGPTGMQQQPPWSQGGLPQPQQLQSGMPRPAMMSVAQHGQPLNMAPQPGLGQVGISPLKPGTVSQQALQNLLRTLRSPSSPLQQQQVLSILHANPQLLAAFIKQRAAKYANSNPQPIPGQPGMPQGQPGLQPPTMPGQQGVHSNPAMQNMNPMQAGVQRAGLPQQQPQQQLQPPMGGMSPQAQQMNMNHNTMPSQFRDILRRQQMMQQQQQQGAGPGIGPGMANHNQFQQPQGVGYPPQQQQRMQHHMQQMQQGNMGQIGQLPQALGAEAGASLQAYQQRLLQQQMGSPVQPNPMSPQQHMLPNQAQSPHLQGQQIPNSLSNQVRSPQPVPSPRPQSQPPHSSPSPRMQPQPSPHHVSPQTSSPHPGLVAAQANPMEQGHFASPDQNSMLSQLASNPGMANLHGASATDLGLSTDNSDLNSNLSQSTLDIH

[4] = target: MYST3 (Homo sapiens, UniProt Q92794); assay: Histone acetyltransferase (HAT) activity assay; format: biochemical; conditions: read-out: HATs Activity (%);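 further: selectivity screen of bromodomain probe compounds across a panel of histone acetyltransferases, read out as enzyme activity in %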
[5] = target: GCN5L2 (Homo sapiens, UniProt Q92830); assay: Histone acetyltransferase (HAT) activity assay; format: biochemical; conditions: read-out: HATs Activity (%);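 further: selectivity screen of BRD probe compounds across a panel of histone acetyltransferases, HAT activity in % with compound at 1 or 10 µM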
[6] = target: BRPF1 (Homo sapiens, UniProt P55201); assay: Temperature shift assay (non-BRD reader domains); format: binding; conditions: 10µM compound
Target sequence in this assay (P55201 1085-1168 limits assumed, species assumed): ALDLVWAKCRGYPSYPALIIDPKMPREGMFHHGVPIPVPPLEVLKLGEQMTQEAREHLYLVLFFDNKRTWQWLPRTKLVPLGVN

[7] = target: WDR9(2) (Homo sapiens, UniProt Q9NSI6); assay: BROMOscan ligand-binding assay; conditions: BROMOscan Gene Symbol WDR9(2)
Description: (§1) BROMOscan is a binding assay based on the well-known KINOMEscan technology. This assay measures the binding of a DNA-tagged bromodomain to an immobilized BRD ligand. If an inhibitor is present, it will compete with the bromodomain binding to the immobilized ligand, resulting in reduction of a quantitative PCR (qPCR) signal in a dose-dependent manner.

[8] = target: FALZ (Homo sapiens, UniProt Q12830); assay: BROMOscan ligand-binding assay
Description: as §1

[9] = target: BRD2(1) (Homo sapiens, UniProt P25440); assay: BROMOscan ligand-binding assay; conditions: BROMOscan Gene Symbol BRD2(1)
Description: as §1

[10] = target: T3, BAZ2B (Homo sapiens, UniProt Q9UIF8); assay: BROMOscan ligand-binding assay
T3 sequence (Q9UIF8 2060-2164 limits assumed): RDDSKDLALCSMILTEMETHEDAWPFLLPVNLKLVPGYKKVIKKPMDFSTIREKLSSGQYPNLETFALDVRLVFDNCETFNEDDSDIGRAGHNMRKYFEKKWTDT
Description: as §1

[11] = target: T4, BRPF1 (Homo sapiens, UniProt P55201); assay: BROMOscan ligand-binding assay; conditions: BROMOscan Gene Symbol BRPF1
T4 sequence (P55201 628-732 limits assumed): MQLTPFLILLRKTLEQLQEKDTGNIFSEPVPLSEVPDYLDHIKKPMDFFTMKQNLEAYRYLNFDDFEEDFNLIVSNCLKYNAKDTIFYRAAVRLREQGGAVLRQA
Description: as §1

[12] = target: T5, BRD1 (Homo sapiens, UniProt O95696); assay: BROMOscan ligand-binding assay; conditions: BROMOscan Gene Symbol BRD1
T5 sequence (O95696 562-666 limits assumed): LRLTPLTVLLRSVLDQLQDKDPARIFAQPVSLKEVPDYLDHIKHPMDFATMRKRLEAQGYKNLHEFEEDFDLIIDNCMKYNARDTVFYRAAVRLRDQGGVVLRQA
Description: as §1

[13] = target: BRD3(2) (Homo sapiens, UniProt Q15059); assay: BROMOscan ligand-binding assay; conditions: BROMOscan Gene Symbol BRD3(2)
Description: as §1

[14] = target: BRD3(1) (Homo sapiens, UniProt Q15059); assay: BROMOscan ligand-binding assay; conditions: BROMOscan Gene Symbol BRD3(1)
Description: as §1

[15] = target: T6, EP300 (Homo sapiens, UniProt Q09472); assay: BROMOscan ligand-binding assay; conditions: BROMOscan Gene Symbol EP300
T6 sequence (Q09472 1049-1156 limits assumed): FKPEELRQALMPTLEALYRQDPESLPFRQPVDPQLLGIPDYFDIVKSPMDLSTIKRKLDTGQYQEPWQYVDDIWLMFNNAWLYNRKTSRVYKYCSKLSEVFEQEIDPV
Description: as §1

[16] = target: BRDT(1) (Homo sapiens, UniProt Q58F21); assay: BROMOscan ligand-binding assay; conditions: BROMOscan Gene Symbol BRDT(1)
Description: as §1

[17] = read-out: KD (BROMOscan), sheet prints no unit (nM)

GCN5L2, sequence (Q92830 whole entry, species assumed, the tested form may be a part): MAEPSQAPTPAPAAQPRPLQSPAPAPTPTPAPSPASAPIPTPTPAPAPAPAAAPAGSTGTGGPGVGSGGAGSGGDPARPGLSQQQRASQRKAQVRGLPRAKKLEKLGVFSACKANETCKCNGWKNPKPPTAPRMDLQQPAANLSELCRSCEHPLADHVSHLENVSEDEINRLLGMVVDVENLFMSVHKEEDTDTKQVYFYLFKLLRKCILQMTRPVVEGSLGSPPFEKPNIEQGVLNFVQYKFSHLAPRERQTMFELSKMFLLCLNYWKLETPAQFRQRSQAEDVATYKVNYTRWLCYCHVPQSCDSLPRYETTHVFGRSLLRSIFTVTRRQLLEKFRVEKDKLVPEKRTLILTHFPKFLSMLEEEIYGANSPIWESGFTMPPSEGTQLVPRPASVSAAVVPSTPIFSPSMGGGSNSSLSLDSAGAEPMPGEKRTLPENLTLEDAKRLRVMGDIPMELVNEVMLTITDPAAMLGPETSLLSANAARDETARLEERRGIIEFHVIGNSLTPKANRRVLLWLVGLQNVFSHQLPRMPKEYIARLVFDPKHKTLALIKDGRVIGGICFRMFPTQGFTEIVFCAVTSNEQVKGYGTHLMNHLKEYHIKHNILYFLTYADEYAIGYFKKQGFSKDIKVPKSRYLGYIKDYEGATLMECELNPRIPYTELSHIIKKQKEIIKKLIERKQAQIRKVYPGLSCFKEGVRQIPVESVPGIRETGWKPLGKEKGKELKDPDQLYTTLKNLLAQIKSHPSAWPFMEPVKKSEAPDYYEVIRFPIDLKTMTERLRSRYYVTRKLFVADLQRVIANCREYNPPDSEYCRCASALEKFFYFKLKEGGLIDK
BRD2(1), sequence (P25440 74-180 limits assumed): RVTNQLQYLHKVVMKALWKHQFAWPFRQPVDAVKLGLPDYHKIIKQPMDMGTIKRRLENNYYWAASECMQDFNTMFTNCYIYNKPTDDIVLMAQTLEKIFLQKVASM
WDR9(2), sequence (Q9NSI6 1313-1418 limits assumed): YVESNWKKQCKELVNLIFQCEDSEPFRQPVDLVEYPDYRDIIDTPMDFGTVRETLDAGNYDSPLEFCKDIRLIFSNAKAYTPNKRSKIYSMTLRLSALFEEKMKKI
BRD3(2), sequence (Q15059 306-415 limits assumed): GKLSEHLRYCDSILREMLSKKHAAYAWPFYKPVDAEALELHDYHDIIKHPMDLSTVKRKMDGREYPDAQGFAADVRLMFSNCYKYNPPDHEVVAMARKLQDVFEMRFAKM
BRD3(1), sequence (Q15059 34-140 limits assumed): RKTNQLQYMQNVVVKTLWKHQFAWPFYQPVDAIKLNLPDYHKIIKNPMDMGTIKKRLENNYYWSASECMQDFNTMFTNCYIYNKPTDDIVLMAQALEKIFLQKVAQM

Row | activity at 1 µM [1] | activity at 10 µM [1] | activity at 1 µM [2] | activity at 10 µM [2] | activity at 1 µM [3] | activity at 10 µM [3] | activity at 1 µM [4] | activity at 10 µM [4] | activity at 1 µM [5] | activity at 10 µM [5] | Tm (C) 10µM, temperature shift [6] | SMILES | other results
1 | 99% | 99% | 100% | 93% | 95% | 93% | 98% | 85% | 99% | 103% | -2.5 Kelvin | Cc1cc2c(cc1N1C(=O)c3cccc4c(CCCO)ccc(c34)C1=O)n(C)c(=O)n2C [BAY-299] | –
2 | 100% | 93% | 99% | 97% | 103% | 99% | 99% | 96% | 94% | 95% | -0.2 Kelvin | Cc1c(NC(=O)c2cc(C(N)=O)nc3cc(F)ccc23)c(C(F)(F)F)nn1Cc1ccc(C(C)(C)C)cc1 [BAY-588] | –
3 | 93% | 94% | 101% | 101% | 98% | 87% | 96% | 97% | 99% | 102% | -2.2 Kelvin | COc1cc(Cl)c(C(=O)N[C@@H](CN[C@H]2CC[C@@H](N)CC2)Cc2ccc(C#N)cc2)cc1-c1ccc(CN[C@H](C)c2ccc(C)cc2)o1 [BAY-850] | –
4 | 96% | 91% | 97% | 89% | 99% | 95% | 99% | 101% | 100% | 97% | -0.3 Kelvin | Cc1c(NC(=O)c2cc(C(N)=O)nc3cc(F)ccc23)c(C(F)(F)F)nn1Cc1ccc(C#N)cc1 [BAY-876] | –
5 | – | – | – | – | – | – | – | – | – | – | – | Cc1noc(C)c1-c1ccc2c(c1)nc(CCc1ccccc1)n2CCN1CCOCC1 [CBP30-298] | Kd [7]: 30 µM; Kd ([8]; BROMOscan Gene Symbol FALZ): > 50000 nM; Kd [8, 17]: > 30000 nM; Kd [9]: 0.78 µM; Kd ([10]; BROMOscan Gene Symbol BAZ2B): > 50000 nM; Kd [10, 17]: > 30000 nM; Kd [11]: 18 µM; Kd [12]: 46 µM; Kd [13]: 1.6 µM; Kd [14]: 0.96 µM; Kd [15]: 0.092 µM; Kd [16]: 1.8 µM
